Source: patent publication US11415579B2, “Assay for measuring a rate of reaction between a target and a ligand candidate” (Imperial College Innovations Ltd., priority 2016, dated 2022)

Legend:
[1] = Kinetic thiol consumption assay with model thiol glutathione; type: physicochemical; set-up: Rate constant with glutathione (k(GSH)): unit not given here; conditions: for Rate constant with Glutathione: Protein: Glutathione, cysteine position NA, in h-1; for Rate constant with glutathione (k(GSH)): 500 μM ligand, 5 μM thiol, phosphate buffer pH 8
Experimental: (§1) A library of 120 acrylamides was screened against a) human cyclin-dependent kinase 2 (Cdk2, which contains one surface exposed cysteine residue—C177), prepared by cloning cDNA into the pRSETA bacterial expression vector to generate a poly-histidine tagged Cdk2 fusion that was purified from E. coli using standard techniques, and b) a model thiol (specific details are given below). The structures of these 120 acrylamides are set out in Table 1, above.
(§2) To wells containing 150 μL thiol (Cdk2 or model thiol) (5 μM) in degassed phosphate buffer (pH 8) was added immobilized TCEP beads (2% v/v).
(§3) After incubation of the fluorescence plates for 1 hour at room temperature, fluorescence measurements (excitation/emission of 380/470 nm) were taken on a PerkinElmer EnVision multilabel plate reader and processed with EnVision Workstation version 1.12.
(§4) Fluorescence measurements were normalized against a DMSO/thiol only control and plotted against time.
(§5) Rate constants were calculated using GraphPad software Prism version 6 by fitting a first order exponential decay to the data. The rate constant for each acrylamide with Cdk2 was divided by the rate constant for that fragment with the model thiol to provide the rate enhancement for each ligand candidate.
The model thiol in Example 1 is glutathione (GSH). Hits were defined as fragments where kCdk2/kGSH>5.8 (empirically determined as 3 standard deviations over the mean).

[2] = molecular target: T1, human cyclin-dependent kinase 2 (Cdk2) (Homo sapiens, UniProt P24941); assay: Kinetic thiol consumption assay with wild type Cdk2 (C177); type: binding; set-up: key to Rate enhancement, Cdk2 WT: k(Cdk2) divided by k(model thiol); Rate constant with Cdk2 (k(Cdk2)): unit not given here; conditions: for Rate enhancement, Cdk2 WT: no additional mutations; for Rate constant with Cdk2 WT: Protein: Cdk2, cysteine position WT, in h^-1; for Rate constant with Cdk2 (k(Cdk2)): 500 μM ligand, 5 μM thiol, phosphate buffer pH 8; for k(Cdk2)/k(GSH) rate enhancement: model thiol glutathione
T1 construct: poly-histidine; made in house; host or cells: E. coli
Experimental: as §1, §2, §3, §4, §5

Cdk2(C177A, F80C) = molecular target: T2, Cdk2(C177A, F80C) (Homo sapiens, UniProt P24941, C177A/F80C); assay: Kinetic thiol consumption assay with Cdk2 mutant F80C, incl. kobs versus concentration (Kd, k2); type: binding; set-up: key to Rate enhancement, Cdk2 F80C: Cdk2 rate constant divided by model-thiol rate constant; conditions: additional mutation C177A; for Rate constant with Cdk2 F80C: Protein: Cdk2, cysteine position F80C, in h^-1
T2 construct: poly-histidine; made in house; host or cells: E. coli
Experimental: Therefore the assay can be used to calculate both k2 and Kd by experimentally determining kobs at a suitable range of ligand candidate concentrations. Typically Kd and k2 would then be determined by fitting a hyperbolic curve to a plot of kobs against ligand candidate concentration (FIG. 9).
as §2, §3, §4, §5
(§6) A further set of set of additional Cdk2 mutants were screened, all containing the C177A mutation and therefore with only one cysteine on the surface: • F80C (without the K278C mutation) • H71C • S276C • N272 • T182C • R122C • S181C
(§7) Mutations were introduced by site-directed mutagenesis and the resulting cDNA was cloned into the pRSETA bacterial expression vector to generate a poly-histidine tagged Cdk2 fusion that was purified from E. coli using standard techniques.
Rate constants were calculated as described in the methodology section of Examples 1 and 2.

Cdk2(H71C) (C177A) = molecular target: T3, Cdk2(H71C) (C177A) (Homo sapiens, UniProt P24941, C177A/H71C); assay: Kinetic thiol consumption assay with Cdk2 mutant H71C; type: binding; set-up: key to Rate enhancement, Cdk2 H71C: rate constant with Cdk2 ÷ rate constant with model thiol (fold); conditions: additional mutation C177A; for Rate constant with Cdk2 H71C: Protein: Cdk2, cysteine position H71C, in h^-1
T3 construct: poly-histidine; made in house; host or cells: E. coli
Experimental: as §2, §3, §4, §5, §6, §7

Cdk2(S276C) (C177A) = molecular target: T4, Cdk2(S276C) (C177A) (Homo sapiens, UniProt P24941, C177A/S276C); assay: Kinetic thiol consumption assay with Cdk2 mutant S276C; type: binding; set-up: key to Rate enhancement, Cdk2 S276C: rate constant with Cdk2 ÷ rate constant with model thiol (fold); conditions: additional mutation C177A; for Rate constant with Cdk2 S276C: Protein: Cdk2, cysteine position S276C, in h^-1
T4 construct: poly-histidine; made in house; host or cells: E. coli
Experimental: as §2, §3, §4, §5, §6, §7

Cdk2(N272C) (C177A) = molecular target: T5, Cdk2(N272C) (C177A) (Homo sapiens, UniProt P24941, C177A/N272C); assay: Kinetic thiol consumption assay with Cdk2 mutant N272C; type: binding; set-up: key to Rate enhancement, Cdk2 N272: rate constant with Cdk2 ÷ rate constant with model thiol (fold); conditions: for Rate enhancement, Cdk2 N272: Cdk2 N272, additional mutation C177A; for Rate constant with Cdk2 N272C: Protein: Cdk2, cysteine position N272C, additional mutation C177A, in h^-1
T5 construct: poly-histidine; made in house; host or cells: E. coli
Experimental: as §2, §3, §4, §5, §6, §7

Cdk2(T182C) (C177A) = molecular target: T6, Cdk2(T182C) (C177A) (Homo sapiens, UniProt P24941, C177A/T182C); assay: Kinetic thiol consumption assay with Cdk2 mutant T182C; type: binding; set-up: key to Rate enhancement, Cdk2 T182C: rate constant with Cdk2 ÷ rate constant with model thiol (fold); conditions: additional mutation C177A; for Rate constant with Cdk2 T182C: Protein: Cdk2, cysteine position T182C, in h^-1
T6 construct: poly-histidine; made in house; host or cells: E. coli
Experimental: as §2, §3, §4, §5, §6, §7

Cdk2(R122C) (C177A) = molecular target: T7, Cdk2(R122C) (C177A) (Homo sapiens, UniProt P24941, C177A/R122C); assay: Kinetic thiol consumption assay with Cdk2 mutant R122C; type: binding; set-up: key to Rate enhancement, Cdk2 R122C: rate constant with Cdk2 ÷ rate constant with model thiol (fold); conditions: additional mutation C177A; for Rate constant with Cdk2 R122C: Protein: Cdk2, cysteine position R122C, in h-1
T7 construct: poly-histidine; made in house; host or cells: E. coli
Experimental: as §2, §3, §4, §5, §6, §7

Cdk2(S181C) (C177A) = molecular target: T8, Cdk2(S181C) (C177A) (Homo sapiens, UniProt P24941, C177A/S181C); assay: Kinetic thiol consumption assay with Cdk2 mutant S181C; type: binding; set-up: key to Rate enhancement, Cdk2 S181C: rate constant with Cdk2 ÷ rate constant with model thiol (fold); conditions: additional mutation C177A; for Rate constant with Cdk2 S181C: Protein: Cdk2, cysteine position S181C, in h^-1
T8 construct: poly-histidine; made in house; host or cells: E. coli
Experimental: as §2, §3, §4, §5, §6, §7

Compound	Rate constant with Glutathione [1]	Rate enhancement, Cdk2 WT [2]	Rate constant with Cdk2 WT [2]	Rate enhancement, Cdk2 F80C (Cdk2(C177A, F80C))	Rate constant with Cdk2 F80C (Cdk2(C177A, F80C))	Rate enhancement, Cdk2 H71C (Cdk2(H71C) (C177A))	Rate constant with Cdk2 H71C (Cdk2(H71C) (C177A))	Rate enhancement, Cdk2 S276C (Cdk2(S276C) (C177A))	Rate constant with Cdk2 S276C (Cdk2(S276C) (C177A))	Rate enhancement, Cdk2 N272 (Cdk2(N272C) (C177A))	Rate constant with Cdk2 N272C (Cdk2(N272C) (C177A))	Rate enhancement, Cdk2 T182C (Cdk2(T182C) (C177A))	Rate constant with Cdk2 T182C (Cdk2(T182C) (C177A))	Rate enhancement, Cdk2 R122C (Cdk2(R122C) (C177A))	Rate constant with Cdk2 R122C (Cdk2(R122C) (C177A))	Rate enhancement, Cdk2 S181C (Cdk2(S181C) (C177A))	Rate constant with Cdk2 S181C (Cdk2(S181C) (C177A))	Rate constant with glutathione (k(GSH)) [1]	Rate constant with Cdk2 (k(Cdk2)) [2]	k(Cdk2)/k(GSH) rate enhancement [2]
C=CC(=O)N(Cc1ccco1)Cc1ccco1 [CA-099/153]	0.2123	1.366	0.2899	0.1651	0.03506	0.2907	0.06172	2.266	0.481	2.393	0.5081	2.038	0.4326	2.423	0.5145	1.479	0.314	–	–	–
C=CC(=O)N1CCC2(CC1)NC(=O)C1(CCCCC1)N2 [CA-129/235]	0.01093	0.2508	0.002741	0.1819	0.001988	0.03271	0.0003575	1.682	0.01838	0.3936	0.004302	0.8826	0.009647	0.925	0.01011	0.2227	0.002434	–	–	–
C=CC(=O)N1CC(OCCN(CC)CC)C1 [CA-145]	0.003156	0.6483	0.002046	0	–	0	–	0	–	1.155	0.003646	1.904	0.00601	0.846	0.00267	2.572	0.008117	0.00318	0.00205	0.6425
C=CC(=O)N(Cc1ccco1)C12CC3CC(CC(C3)C1)C2 [CA-157]	0.008283	1.257	0.01041	0.165	0.001367	1.058	0.008761	68.22	0.5651	87.21	0.7224	10.22	0.08469	0.376	0.003114	0.9237	0.007651	0.00399	0.00288	0.7234
C=CC(=O)N(C)C1C2CCOC2C1(C)C (stereo not shown) [CA-182]	0.003007	1.268	0.003813	0	–	0.6721	0.002021	0.6169	0.001855	1.56	0.004691	6.867	0.02065	1.368	0.004115	3.018	0.009074	0.00304	0.00381	1.254
C#CCN1CCCN(C(=O)C=C)CC1 [CA-196]	0.003626	1.03	0.003735	0.4719	0.001711	0	–	0.4186	0.001518	0.8296	0.003008	2.74	0.009935	0.7394	0.002681	0.7592	0.002753	0.00365	0.00372	1.021
